In patent publication US20240140958A1, “FUSED QUADRACYCLIC COMPOUNDS, COMPOSITIONS AND USES THEREOF” (Tabomedex Biosciences, Inc., priority 2021, published 2024):

Tests used:
[1] = target: T1, MAPKAPK2 Recombinant Human Protein (Homo sapiens, UniProt P49137); assay: MK2 kinase assay (Z'-LYTE kinase assay kit); conditions: inhibition of MK2 biochemical activity; 90 min incubation at room temperature
T1 construct: purchased ThermoFisher pv3317
Method: Materials and Reagents for Measuring Inhibition of MK2 Biochemical Activity: • 1) Assay plate: 384 Well Low Volume Black Round Bottom Polystyrene NBS Microplate (Corning, Cat.No. 4514) • 2) MK2 kinase assay kit: Z' LYTE KINASE ASSAY KIT (ThermoFisher, Cat.No. pv3177) • 3) MAPKAPK2 Recombinant Human Protein (ThermoFisher, Cat.No. pv3317) • 4) DMSO (Vetec, Cat.No. V900090) • 5) DTT (Sigma, Cat.No. D0632)
MK2 Kinase Assay Procedure: • 1) Dispense 5 μl Kinase/Peptide Mixture to each wells of 384-well plate • 2) Add 2.5 μl 4× Test Compound to each well • 3) Add 2.5 μl 4× ATP Solution to each well • 4) After 90 minutes incubation at room temperature, add 5 μl Development Solution to each well • 5) After 60 minutes incubation at room temperature, add 5 μl stop Solution to each well • 6) Measure the Coumarin (Ex. 400 nm, Em. 445 nm) and Fluorescein (Ex. 400 nm, Em. 520 nm) emission signals on an Envision plate reader (PerkinElmer)

THP-1 cells = assay: THP-1 cell assay: LPS-stimulated pSer78-Hsp27 ELISA; format: cell-based; conditions: Homo sapiens, PMA-differentiated THP-1 cells, compound 60 min before 20 ng/mL LPS for 30 min
Source text: Materials and Reagents for Measuring Activity in THP-1 Cells: • 1) THP-1 cells (Cell bank of Shanghai) • 2) PMA (Sigma, Cat.No. P1585) • 3) LPS (Sigma, Cat.No. L4516) • 4) 96-well tissue-culture treated plate (Grenier, Cat.No. 655180) • 5) FBS (Thermofisher, Cat.No. 10100147) • 6) Complete EDTA-free protease inhibitor Cocktail (Roche, Cat.No. 4693132001) • 7) PhosSTOP (Roche, Cat.No. 4906845001) • 8) Phosphor-Hsp27 (Ser78) Sandwich Elisa kit (CST, Cat.No. 7295)
Cell Assay Procedure: • 1) Day 0: THP-1 cells are seeded at 50K/well in complete media (1640+10% FBS+50 μM β-ME)+20 ng/mL PMA in 96-well plate • 2) Day 1: PMA containing media is removed after 24 h incubation (37° C./5% CO2), and replaced with complete growth media. Cells are incubated an additional 48 h to recover. • 3) Day 3: Cells are incubated with or without compounds at indicated concentrations for 60 min, prior to addition of 20 ng/mL LPS. Cells are stimulated for 30 min with LPS, washed 1× with ice cold PBS, lysed on ice in Lysis buffer provided in ELISA kit with Roche protease & phosphatase inhibitors. Extracts are clarified by refrigerated centrifugation & stored at −80° C. until pHsp27/total Hsp27 ELISAs • 4) Day 3 or Day 4: Cell Signaling Technology ELISA is run for pSer78-Hsp27 on lysates diluted to approximately 2.5 μg/well. • 5) The absorbance at 450 nm was read in a SpectraMax plus plate reader (Molecular Devices). Data was processed using GraphPad prism 8.0.

T1 sequence (P49137 whole entry): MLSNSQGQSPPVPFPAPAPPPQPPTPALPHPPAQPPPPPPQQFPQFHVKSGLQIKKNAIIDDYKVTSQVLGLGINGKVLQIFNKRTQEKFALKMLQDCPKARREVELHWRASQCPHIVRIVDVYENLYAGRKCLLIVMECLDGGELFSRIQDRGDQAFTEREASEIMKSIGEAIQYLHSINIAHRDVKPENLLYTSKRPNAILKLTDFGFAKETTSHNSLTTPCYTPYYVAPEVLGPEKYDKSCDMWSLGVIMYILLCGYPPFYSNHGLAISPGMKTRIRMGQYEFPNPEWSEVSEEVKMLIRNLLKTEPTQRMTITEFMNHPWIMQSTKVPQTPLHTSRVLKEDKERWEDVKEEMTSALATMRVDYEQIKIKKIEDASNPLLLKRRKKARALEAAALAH

| IC50 [1] [nM] | IC50 (THP-1 cells) [nM] | Compound |
| --- | --- | --- |
| < 50 | < 50 | CN(C)C[C@@H]1CCN(c2ccc3c(c2)Cn2cc(-c4ccc(C#N)cc4)cc2-c2nccn2-3)C1=O (single isomer, unassigned) [Example 36] |
| < 50 | 300 to 400 | CC(C)(N)[C@@H]1CC(=O)N(c2ccc3c(c2)Cn2cc(-c4ccc(C#N)cc4)cc2-c2nccn2-3)C1 [Example 53] |
| < 50 | 50 to 100 | CNC[C@H]1CC(=O)N(c2ccc3c(c2)Cn2cc(-c4ccc(C#N)cc4)cc2-c2nccn2-3)C1 [Example 9] |
| < 50 | 500 to 1000 | CN(C)[C@H]1C[C@H](NC(=O)c2ccc3c(c2)Cn2cc(-c4ccc(C#N)cc4)cc2-c2nccn2-3)C1 [Example 126] |
| < 50 | < 50 | N#Cc1ccc(-c2cc3n(c2)Cc2cc(N4C[C@@H](CN5CCC5)CC4=O)ccc2-n2ccnc2-3)cc1 [Example 27] |
| < 50 | < 50 | CN1CC(N2C(=O)CN(c3ccc4c(c3)Cn3cc(-c5ccc(C#N)cc5)cc3-c3nccn3-4)C2=O)C1 [Example 69] |
| 50 to 100 | 100 to 200 | CN(C)CCn1cnn(-c2ccc3c(c2)Cn2cc(-c4ccc(C#N)cc4)cc2-c2nccn2-3)c1=O [Example 79, 4-(7-(4-(2-(Dimethylamino)ethyl)-5-oxo-4,5-dihydro-1H-1,2,4-triazol-1-yl)-9H-benzo[e]imidazo[2,1-c]pyrrolo[1,2-a][1,4]diazepin-12-yl)benzonitrile] |
| < 50 | < 50 | CN1CC(C)(CN2C(=O)CN(c3ccc4c(c3)Cn3cc(-c5ccc(C#N)cc5)cc3-c3nccn3-4)C2=O)C1 [Example 65, 4-(7-(3-((1,3-Dimethylazetidin-3-yl)methyl)-2,4-dioxoimidazolidin-1-yl)-9H-benzo[e]imidazo[2,1-c]pyrrolo[1,2-a][1,4]diazepin-12-yl)benzonitrile] |
| < 50 | 100 to 200 | CCNC[C@H]1CC(=O)N(c2ccc3c(c2)Cn2cc(-c4ccc(C#N)cc4)cc2-c2nccn2-3)C1 [Example 10] |
| 50 to 100 | 300 to 400 | C[C@H]1[C@@H](CN(C)C)OC(=O)N1c1ccc2c(c1)Cn1cc(-c3ccc(C#N)cc3)cc1-c1nccn1-2 [Example 61, 4-(7-((4S,5R)-5-((Dimethylamino)methyl)-4-methyl-2-oxooxazolidin-3-yl)-9H-benzo[e]imidazo[2,1-c]pyrrolo[1,2-a][1,4]diazepin-12-yl)benzonitrile] |
| 50 to 100 | 200 to 300 | CN1CC2(C1)CN(C(=O)c1ccc3c(c1)Cn1cc(-c4ccc(C#N)cc4)cc1-c1nccn1-3)C2 [Example 109] |
| < 50 | < 50 | CN1CC(N2CCN(c3ccc4c(c3)Cn3cc(-c5ccc(C#N)cc5)cc3-c3nccn3-4)C2=O)C1 [Example 58, 4-(7-(3-(1-Methylazetidin-3-yl)-2-oxoimidazolidin-1-yl)-9H-benzo[e]imidazo[2,1-c]pyrrolo[1,2-a][1,4]diazepin-12-yl)benzonitrile] |
| 50 to 100 | 50 to 100 | CN(CCO)C[C@H]1CC(=O)N(c2ccc3c(c2)Cn2cc(-c4ccc(F)cc4)cc2-c2nccn2-3)C1 [Example 89, (R)-1-(12-(4-Fluorophenyl)-9H-benzo[e]imidazo[2,1-c]pyrrolo[1,2-a][1,4]diazepin-7-yl)-4-(((2-hydroxyethyl)(methyl)amino)methyl)pyrrolidin-2-one] |
| < 50 | 200 to 300 | CN(C)C[C@H]1CCN1C(=O)c1ccc2c(c1)Cn1cc(-c3ccc(C#N)cc3)cc1-c1nccn1-2 [Example 115] |
| < 50 | 50 to 100 | CN(C)[C@@H]1CCN(C(=O)Nc2ccc3c(c2)Cn2cc(-c4ccc(C#N)cc4)cc2-c2nccn2-3)C1 [Example 74] |
| 50 to 100 | 500 to 1000 | CN(C)CC1CN(C(=O)c2ccc3c(c2)Cn2cc(-c4ccc(C#N)cc4)cc2-c2nccn2-3)C1 [Example 117] |
| < 50 | < 50 | CC1(C)CCN1C[C@@H]1CN(c2ccc3c(c2)Cn2cc(-c4ccc(C#N)cc4)cc2-c2nccn2-3)C(=O)O1 [Example 6, (R)-4-(7-(5-((2,2-Dimethylazetidin-1-yl)methyl)-2-oxooxazolidin-3-yl)-9H-benzo[e]imidazo[2,1-c]pyrrolo[1,2-a][1,4]diazepin-12-yl)benzonitrile] |
| < 50 | 50 to 100 | N#Cc1ccc(-c2cc3n(c2)Cc2cc(N4C[C@@H](C5(N)CC5)CC4=O)ccc2-n2ccnc2-3)cc1 [Example 50] |
| 50 to 100 | 100 to 200 | N#Cc1ccc(-c2cc3n(c2)Cc2cc(N4C[C@@H](CN5CCC(F)C5)CC4=O)ccc2-n2ccnc2-3)cc1 (stereo partly drawn) [Example 26, 4-(7-((4R)-4-((3-Fluoropyrrolidin-1-yl)methyl)-2-oxopyrrolidin-1-yl)-9H-benzo[e]imidazo[2,1-c]pyrrolo[1,2-a][1,4]diazepin-12-yl)benzonitrile] |
| < 50 | < 50 | CN(C)C[C@@H]1CCN1C(=O)c1ccc2c(c1)Cn1cc(-c3ccc(C#N)cc3)cc1-c1nccn1-2 [Example 116] |
| < 50 | 200 to 300 | CN1CC2(CC(=O)N(c3ccc4c(c3)Cn3cc(-c5ccc(C#N)cc5)cc3-c3nccn3-4)C2)C1 [Example 23, 4-(7-(2-Methyl-7-oxo-2,6-diazaspiro[3.4]octan-6-yl)-9H-benzo[e]imidazo [2,1-c]pyrrolo[1,2-a][1,4]diazepin-12-yl)benzonitrile] |
| 50 to 100 | 100 to 200 | CC(C)N1CCC(C(=O)Nc2ccc3c(c2)Cn2cc(-c4ccc(C#N)cc4)cc2-c2nccn2-3)C1 (stereo not drawn) [Example 77, N-(12-(4-Cyanophenyl)-9H-benzo[e]imidazo[2,1-c]pyrrolo[1,2-a][1,4]diazepin-7-yl)-1-isopropylpyrrolidine-3-carboxamide] |
| < 50 | < 50 | CN(C)C[C@H]1CCN(c2ccc3c(c2)Cn2cc(-c4ccc(C#N)cc4)cc2-c2nccn2-3)C1=O (single isomer, unassigned) [Example 35] |
| < 50 | < 50 | CN(C)[C@H]1CCN(C(=O)Nc2ccc3c(c2)Cn2cc(-c4ccc(C#N)cc4)cc2-c2nccn2-3)C1 [Example 73] |
| < 50 | < 50 | CN(C)CCN1C(=O)CN(c2ccc3c(c2)Cn2cc(-c4ccc(C#N)cc4)cc2-c2nccn2-3)C1=O [Example 75, 4-(7-(3-(2-(Dimethylamino)ethyl)-2,4-dioxoimidazolidin-1-yl)-9H-benzo[e]imidazo[2,1-c]pyrrolo[1,2-a][1,4]diazepin-12-yl)benzonitrile] |
| 50 to 100 | 200 to 300 | CN(C)C[C@@H]1CN(c2ccc3c(c2)Cn2cc(-c4ccc(C#N)cc4)cc2-c2nccn2-3)C(=O)N1C [Example 56, (R)-4-(7-(4-((Dimethylamino)methyl)-3-methyl-2-oxoimidazolidin-1-yl)-9H-benzo[e]imidazo[2,1-c]pyrrolo[1,2-a][1,4]diazepin-12-yl)benzonitrile] |
| 50 to 100 | 300 to 400 | CN(C)[C@H]1CCN(c2ccc3c(c2)Cn2cc(-c4ccc(C#N)cc4)cc2-c2nccn2-3)C1=O [Example 25, (S)-4-(7-(3-(Dimethylamino)-2-oxopyrrolidin-1-yl)-9H-benzo[e]imidazo [2,1-c]pyrrolo[1,2-a][1,4]diazepin-12-yl)benzonitrile] |
| < 50 | 300 to 400 | [2H]C([2H])([2H])N(CC1CCN(c2ccc3c(c2)Cn2cc(-c4ccc(C#N)cc4)cc2-c2nnc(C)n2-3)C1=O)C([2H])([2H])[2H] (stereo not drawn) [Example 86, 4-(7-(3-((Bis(methyl-d3)amino)methyl)-2-oxopyrrolidin-1-yl)-3-methyl-9H-benzo [e]pyrrolo[1,2-a][1,2,4]triazolo[3,4-c][1,4]diazepin-12-yl)benzonitrile] |
| < 50 | > 1000 | CN1CC(CN2C(=O)CN(c3ccc4c(c3)Cn3cc(-c5ccc(C#N)cc5)cc3-c3nccn3-4)C2=O)C1 [Example 67] |
| 50 to 100 | 100 to 200 | N#Cc1ccc(-c2cc3n(c2)Cc2cc(N4C[C@@H](CNC5COC5)CC4=O)ccc2-n2ccnc2-3)cc1 [Example 14] |
